Results as given in patent US20110152317A1, “P[…] OCCURRENCE OF OBESITY” (DUKE UNIVERSITY, priority 2008, published 2011).

Columns and labels:
[1] = test system: male C57BL/6 mice on a high-fat diet; test: Chloroquine injection in mice on high-fat diet (obesity, insulin resistance, skeletal muscle lipid profiling); assay type: in vivo, mouse; conditions: high-fat diet (60% of calories from fat), 60 mg/kg intraperitoneal daily for 12 weeks
Text: Five adult (12 week old) male C57BL/6 mice (The Jackson Laboratory, Bar Harbor, ME) were subjected to 12 weeks of high-fat diet (HF) (60% of calories from fat) with a separate group of five mice on normal chow (NC) for the same duration as control. A significant difference in body weight between NC and HF mice was detected 4 weeks after implementation of the high-fat diet, and the body weight of the HF group continued to increase to about 55.4% above the value in age matched NC mice after 12 weeks of the high-fat diet. […] NC mice. The development of severe obesity in HF mice was accompanied by 89.0% increase (P<0.001) in blood glucose area under curve (AUC) during a glucose tolerance test. These findings indicate that high-fat diet in adult mice induced severe obesity and insulin resistance.
Five of the same kind of non-obese mice as used in Background Example 1 on a high-fat diet (60% of calories from fat) were injected with chloroquine (60 mg/kg, intraperitoneal) daily for 12 weeks of high-fat diet feeding.

human on high-fat diet = test: Oral chloroquine in a human on a high-fat diet (Working Example I); assay type: in vivo; conditions: person, 400 mg orally daily, 12 weeks
Protocol: A person with BMI of 20 eats a diet where 50% of calories come from fat, e.g. cheeseburgers or steak, onion rings or french fries, and ice cream or pecan pie for dessert at dinner, cold cut sandwich and fries or pizza for lunch, eggs, sausage, hash browns for breakfast. The subject also orally takes 400 mg chloroquine orally daily. The regimen is continued for 12 weeks.

Structure (SMILES): CCN(CC)CCCC(C)Nc1ccnc2cc(Cl)ccc12 (centres unmarked) [chloroquine]
- high-fat diet induced changes in skeletal muscle (mass spectrometry-based profiling of lipid species) [1]: blocked high-fat diet induced changes in skeletal muscle
- occurrence of insulin resistance (glucose tolerance test) [1]: blocked the occurrence of obesity and insulin resistance
- occurrence of obesity [1]: blocked the occurrence of obesity
- BMI (human on high-fat diet; baseline BMI 20, diet 50% of calories from fat): 20
- development of insulin resistance (human on high-fat diet; diet 50% of calories from fat): does not develop insulin resistance
